Experimental data reported in patent US7384927B2, “Alkylated porphyrins as pesticides acting both in the presence and absence of light” (priority 2003, dated 2008).

What was measured:
[1] = system: Bactrocera oleae (olive fly); test: Uptake of alkylated porphyrins by flies fed porphyrin-containing bait; format: in vivo; conditions: B. oleae
[2] = system: Stomoxis calcitrans (stable fly); test: as above; format: in vivo; conditions: S. calcitrans
[3] = exposure time to bait 3 h, porphyrin in bait 1.24 μM
[4] = exposure time to bait 12 h, porphyrin in bait 1.24 μM
[5] = exposure time to bait 24 h, porphyrin in bait 1.24 μM
[6] = porphyrin concentration in bait 0.75 (μmoles), feeding 24 h
[7] = porphyrin concentration in bait 1.25 (μmoles), feeding 24 h
[8] = porphyrin concentration in bait 2.10 (μmoles), feeding 24 h
[9] = porphyrin concentration in bait 3.50 (μmoles), feeding 24 h
[10] = porphyrin concentration in bait 6.00 (μmoles), feeding 24 h

CCCCCCCCCCCCCCCCCC[n+]1ccc(-c2c3nc(c(-c4cc[n+](C)cc4)c4ccc([nH]4)c(-c4cc[n+](C)cc4)c4nc(c(-c5cc[n+](C)cc5)c5ccc2[nH]5)C=C4)C=C3)cc1 [C18, meso[tri(N-methyl-pyridyl), mono(N-octadecyl-pyridyl)]porphine] was tested, and the “Recoveries (nmoles of porphyrin per fly)” value [1, 3] was 1.6 nmoles of porphyrin per fly, the “Recoveries (nmoles of porphyrin per fly)” value [1, 4] was 7.7 nmoles of porphyrin per fly and the “Recoveries (nmoles of porphyrin per fly)” value [1, 5] was 8.9 nmoles of porphyrin per fly. The “Recoveries (nmoles of porphyrin per fly)” value [1, 6] was 5.2 nmoles of porphyrin per fly, the “Recoveries (nmoles of porphyrin per fly)” value [1, 7] was 8.9 nmoles of porphyrin per fly and the “Recoveries (nmoles of porphyrin per fly)” value [1, 8] was 9.7 nmoles of porphyrin per fly. For the same molecule, the “Recoveries (nmoles of porphyrin per fly)” value [1, 9] was 12.0 nmoles of porphyrin per fly, the “Recoveries (nmoles of porphyrin per fly)” value [1, 10] was 12.9 nmoles of porphyrin per fly and the “Recoveries (nmoles of porphyrin per fly)” value [2, 3] was 3.2 nmoles of porphyrin per fly. The “Recoveries (nmoles of porphyrin per fly)” value [2, 4] was 8.9 nmoles of porphyrin per fly, the “Recoveries (nmoles of porphyrin per fly)” value [2, 5] was 9.2 nmoles of porphyrin per fly and the “Recoveries (nmoles of porphyrin per fly)” value [2, 6] was 5.9 nmoles of porphyrin per fly. The “Recoveries (nmoles of porphyrin per fly)” value [2, 7] was 9.2 nmoles of porphyrin per fly, the “Recoveries (nmoles of porphyrin per fly)” value [2, 8] was 12.8 nmoles of porphyrin per fly and the “Recoveries (nmoles of porphyrin per fly)” value [2, 9] was 15.7 nmoles of porphyrin per fly. The “Recoveries (nmoles of porphyrin per fly)” value [2, 10] was 15.7 nmoles of porphyrin per fly.
CCCCCCCCCCCC[n+]1ccc(-c2c3nc(c(-c4cc[n+](C)cc4)c4ccc([nH]4)c(-c4cc[n+](C)cc4)c4nc(c(-c5cc[n+](C)cc5)c5ccc2[nH]5)C=C4)C=C3)cc1 [C12, meso[tri(N-methyl-pyridyl), mono(N-dodecyl-pyridyl)]porphine] was tested, and the “Recoveries (nmoles of porphyrin per fly)” value [1, 3] was 0.8 nmoles of porphyrin per fly, the “Recoveries (nmoles of porphyrin per fly)” value [1, 4] was 2.6 nmoles of porphyrin per fly and the “Recoveries (nmoles of porphyrin per fly)” value [1, 5] was 3.2 nmoles of porphyrin per fly. The “Recoveries (nmoles of porphyrin per fly)” value [1, 6] was 2.7 nmoles of porphyrin per fly, the “Recoveries (nmoles of porphyrin per fly)” value [1, 7] was 3.2 nmoles of porphyrin per fly and the “Recoveries (nmoles of porphyrin per fly)” value [1, 8] was 6.5 nmoles of porphyrin per fly. The “Recoveries (nmoles of porphyrin per fly)” value [1, 9] was 9.3 nmoles of porphyrin per fly, the “Recoveries (nmoles of porphyrin per fly)” value [1, 10] was 10.6 nmoles of porphyrin per fly and the “Recoveries (nmoles of porphyrin per fly)” value [2, 3] was 1.4 nmoles of porphyrin per fly. The “Recoveries (nmoles of porphyrin per fly)” value [2, 4] was 3.2 nmoles of porphyrin per fly, the “Recoveries (nmoles of porphyrin per fly)” value [2, 5] was 3.7 nmoles of porphyrin per fly and the “Recoveries (nmoles of porphyrin per fly)” value [2, 6] was 2.5 nmoles of porphyrin per fly. For the same molecule, the “Recoveries (nmoles of porphyrin per fly)” value [2, 7] was 3.7 nmoles of porphyrin per fly, the “Recoveries (nmoles of porphyrin per fly)” value [2, 8] was 6.0 nmoles of porphyrin per fly and the “Recoveries (nmoles of porphyrin per fly)” value [2, 9] was 9.0 nmoles of porphyrin per fly. The “Recoveries (nmoles of porphyrin per fly)” value [2, 10] was 9.7 nmoles of porphyrin per fly.
CCCCCCCCCCCCCC[n+]1ccc(-c2c3nc(c(-c4cc[n+](C)cc4)c4ccc([nH]4)c(-c4cc[n+](C)cc4)c4nc(c(-c5cc[n+](C)cc5)c5ccc2[nH]5)C=C4)C=C3)cc1 [C14, meso[tri(N-methyl-pyridyl), mono(N-tetradecyl-pyridyl)]porphine] was tested, and the “Recoveries (nmoles of porphyrin per fly)” value [1, 3] was 2.2 nmoles of porphyrin per fly, the “Recoveries (nmoles of porphyrin per fly)” value [1, 4] was 3.7 nmoles of porphyrin per fly and the “Recoveries (nmoles of porphyrin per fly)” value [1, 5] was 4.8 nmoles of porphyrin per fly. The “Recoveries (nmoles of porphyrin per fly)” value [1, 6] was 3.9 nmoles of porphyrin per fly, the “Recoveries (nmoles of porphyrin per fly)” value [1, 7] was 4.8 nmoles of porphyrin per fly and the “Recoveries (nmoles of porphyrin per fly)” value [1, 8] was 8.5 nmoles of porphyrin per fly. The “Recoveries (nmoles of porphyrin per fly)” value [1, 9] was 10.6 nmoles of porphyrin per fly, the “Recoveries (nmoles of porphyrin per fly)” value [1, 10] was 13.8 nmoles of porphyrin per fly and the “Recoveries (nmoles of porphyrin per fly)” value [2, 3] was 2.4 nmoles of porphyrin per fly. The “Recoveries (nmoles of porphyrin per fly)” value [2, 4] was 5.6 nmoles of porphyrin per fly, the “Recoveries (nmoles of porphyrin per fly)” value [2, 5] was 6.2 nmoles of porphyrin per fly and the “Recoveries (nmoles of porphyrin per fly)” value [2, 6] was 4.1 nmoles of porphyrin per fly. The “Recoveries (nmoles of porphyrin per fly)” value [2, 7] was 6.2 nmoles of porphyrin per fly, the “Recoveries (nmoles of porphyrin per fly)” value [2, 8] was 10.2 nmoles of porphyrin per fly and the “Recoveries (nmoles of porphyrin per fly)” value [2, 9] was 12.5 nmoles of porphyrin per fly. For the same molecule, the “Recoveries (nmoles of porphyrin per fly)” value [2, 10] was 12.8 nmoles of porphyrin per fly.
